# According to patent US20250171437A1 (Agios Pharmaceuticals,Inc., priority 2022, published 2025):
# Target: T1, human PAH with the R408W mutation (A375 R408W cells) (Homo sapiens, UniProt P00439, R408W)
# T1 construct: expressed in transfected cells
# T1 sequence (P00439 1-452 R408W): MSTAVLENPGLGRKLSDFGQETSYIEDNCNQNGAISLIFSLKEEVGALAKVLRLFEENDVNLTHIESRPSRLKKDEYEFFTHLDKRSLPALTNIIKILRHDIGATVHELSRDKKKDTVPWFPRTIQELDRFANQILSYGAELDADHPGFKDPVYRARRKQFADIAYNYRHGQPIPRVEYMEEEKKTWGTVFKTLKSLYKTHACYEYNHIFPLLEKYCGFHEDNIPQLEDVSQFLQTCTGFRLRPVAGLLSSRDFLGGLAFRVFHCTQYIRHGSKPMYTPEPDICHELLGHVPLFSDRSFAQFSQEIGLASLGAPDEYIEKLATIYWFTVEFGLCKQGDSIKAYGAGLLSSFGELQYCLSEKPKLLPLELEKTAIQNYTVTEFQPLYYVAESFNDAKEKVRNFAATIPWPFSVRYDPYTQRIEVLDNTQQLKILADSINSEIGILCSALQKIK
# Assay: Cell Based Phenylalanine Flux Assay
# Settings: 24 hrs with compound, then 20 μM sepiapterin and 800 μM 13C9,15N-Phenylalanine for 4 hours, 13C-Tyrosine by LC-MS, average where tested multiple times
# In short: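 AC50 is derived from LC-MS of 13C-tyrosine in the media after a 4 h pulse of 800 μM 13C9,15N-phenylalanine plus 20 μM sepiapterin. The A375 R408W PAH cells had received duplicate 10-point, 2-fold compound dilutions (0.5% DMSO) for 24 h beforehand.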
# [1] = A375 cells expressing R408W PAH
SMILES,AC50 (A375 R408W cells) [nM],AC50 [1] [nM]
"Cn1cc(-c2nc(C(F)F)c(C(=O)N3CCc4[nH]cnc4[C@@H]3c3nc4cc(F)ccc4o3)o2)cn1 [Example 87, (R)-(4-(difluoromethyl)-2-(1-methyl-1H-pyrazol-4-yl)oxazol-5-yl)(4-(5-fluorobenzo[d]oxazol-2-yl)-6,7-dihydro-1H-imidazo[4,5-c]pyridin-5(4H)-yl)methanone]",1000 to 5000,–
"Cc1ccc2oc([C@@H]3c4nc[nH]c4CCN3C(=O)c3nnc(-c4cnn(C)c4)o3)nc2c1 [Example 111, (S)-(5-(1-methyl-1H-pyrazol-4-yl)-1,3,4-oxadiazol-2-yl)(4-(5-methylbenzo[d]oxazol-2-yl)-6,7-dihydro-1H-imidazo[4,5-c]pyridin-5(4H)-yl)methanone]",500 to 1000,–
"COCc1ccc2c(C(=O)N3CCc4[nH]cnc4[C@@H]3c3nc4c(F)cccc4o3)cnn2c1 [Example 276, (R)-(4-(4-fluorobenzo[d]oxazol-2-yl)-6,7-dihydro-1H-imidazo[4,5-c]pyridin-5(4H)-yl)(6-(methoxymethyl)pyrazolo[1,5-a]pyridin-3-yl)methanone]",≥ 5000,–
"O=C(c1nnc(-c2ccc(F)c(F)c2)o1)N1CCc2[nH]cnc2[C@H]1c1nc2cc(F)ccc2o1 [Example 75, (S)-(5-(3,4-difluorophenyl)-1,3,4-oxadiazol-2-yl)(4-(5-fluorobenzo[d]oxazol-2-yl)-6,7-dihydro-1H-imidazo[4,5-c]pyridin-5(4H)-yl)methanone]",500 to 1000,–
Nc1ccc2c(C(=O)N3CCc4[nH]cnc4C3c3nc4cc(F)ccc4o3)cnn2c1 (centres unmarked),–,≥ 5000
O=C(c1nnc(N2CCOCC2)o1)N1CCc2[nH]cnc2C1c1nc2cc(F)ccc2o1 (centres unmarked),–,1000 to 5000
O=C(c1cnco1)N1CCc2[nH]cnc2C1c1nc2c(F)cc(F)cc2o1 (centres unmarked),–,≥ 5000
"Cc1ccc2oc([C@H]3c4nc[nH]c4CCN3C(=O)c3nnc(-c4cnn(C(F)F)c4)o3)nc2c1 [Example 674, (R)-(5-(1-(difluoromethyl)-1H-pyrazol-4-yl)-1,3,4-oxadiazol-2-yl)(4-(5-methylbenzo[d]oxazol-2-yl)-6,7-dihydro-1H-imidazo[4,5-c]pyridin-5(4H)-yl)methanone]",1000 to 5000,–
"Cn1cc(-c2nnc(C(=O)N3CCc4[nH]cnc4[C@H]3c3nc4cc(F)ccc4o3)o2)c(C(F)(F)F)n1 [Example 118, (S)-(4-(5-fluorobenzo[d]oxazol-2-yl)-6,7-dihydro-1H-imidazo[4,5-c]pyridin-5(4H)-yl)(5-(1-methyl-3-(trifluoromethyl)-1H-pyrazol-4-yl)-1,3,4-oxadiazol-2-yl)methanone]",≤ 500,–
"CC(C)(O)c1nc(C(F)F)c(C(=O)N2CCc3[nH]cnc3[C@H]2c2nc3c(Cl)cccc3o2)o1 [Example 435, [(4S)-4-(4-chloro-1,3-benzoxazol-2-yl)-1,4,6,7-tetrahydroimidazo[4,5-c]pyridin-5-yl]-[4-(difluoromethyl)-2-(1-hydroxy-1-methyl-ethyl)oxazol-5-yl]methanone]",≤ 500,–
COc1ccc2oc(C3c4nc[nH]c4CCN3C(=O)c3cnc(C(C)(C)O)o3)nc2c1 (centres unmarked),–,1000 to 5000
"Cc1nc(-c2ccccn2)oc1C(=O)N1CCc2[nH]cnc2[C@H]1c1nc2cccc(F)c2o1 [Example 594, (S)-(4-(7-fluorobenzo[d]oxazol-2-yl)-6,7-dihydro-1H-imidazo[4,5-c]pyridin-5(4H)-yl)(4-methyl-2-(pyridin-2-yl)oxazol-5-yl)methanone]",≤ 500,–
O=C(CCc1cnco1)N1CCc2[nH]cnc2C1c1nc2c(F)cccc2o1 (centres unmarked),–,1000 to 5000
"O=C(c1nnc(-c2ccc(OC(F)(F)F)cn2)o1)N1CCc2[nH]cnc2[C@@H]1c1nc2cc(F)ccc2o1 [Example 672, (R)-(4-(5-fluorobenzo[d]oxazol-2-yl)-6,7-dihydro-1H-imidazo[4,5-c]pyridin-5(4H)-yl)(5-(5-(trifluoromethoxy)pyridin-2-yl)-1,3,4-oxadiazol-2-yl)methanone]",1000 to 5000,–
CC(C)(O)c1ncc(C(=O)N2CCc3[nH]cnc3C2c2nc3cc(F)cc(F)c3o2)o1 (centres unmarked),–,1000 to 5000
"COc1ccc2oc([C@@H]3c4nc[nH]c4CCN3C(=O)c3ccnn3C(F)F)nc2c1 [Example 551, (S)-(1-(difluoromethyl)-1H-pyrazol-5-yl)(4-(5-methoxybenzo[d]oxazol-2-yl)-6,7-dihydro-1H-imidazo[4,5-c]pyridin-5(4H)-yl)methanone]",500 to 1000,–
Cc1ccc2nc(C3c4nc[nH]c4CCN3C(=O)c3cncs3)oc2c1 (centres unmarked),–,≥ 5000
"Cn1ccc(-c2nnc(C(=O)N3CCc4[nH]cnc4[C@H]3c3nc4cccc(F)c4o3)o2)n1 [Example 337, (S)-(4-(7-fluorobenzo[d]oxazol-2-yl)-6,7-dihydro-1H-imidazo[4,5-c]pyridin-5(4H)-yl)(5-(1-methyl-1H-pyrazol-3-yl)-1,3,4-oxadiazol-2-yl)methanone]",≤ 500,–
Cn1nc(C(C)(C)C)cc1C(=O)N1CCc2[nH]cnc2C1c1nc2cccc(F)c2o1 (centres unmarked),–,≥ 5000
Cn1ccc(C(=O)N2CCc3[nH]cnc3C2c2nc3cc(F)ccc3o2)n1 (centres unmarked),–,1000 to 5000
"Cc1nc(C(C)(C)O)oc1C(=O)N1CCc2[nH]cnc2[C@H]1c1nc2c(F)cccc2o1 [Example 259, (S)-(4-(4-fluorobenzo[d]oxazol-2-yl)-6,7-dihydro-1H-imidazo[4,5-c]pyridin-5(4H)-yl)(2-(2-hydroxypropan-2-yl)-4-methyloxazol-5-yl)methanone]",500 to 1000,–
COCCNc1nnc(C(=O)N2CCc3[nH]cnc3C2c2nc3cc(F)ccc3o2)o1 (centres unmarked),–,≥ 5000
CNCCc1ccc2c(C(=O)N3CCc4[nH]cnc4C3c3nc4cc(F)ccc4o3)cnn2c1 (centres unmarked),–,≥ 5000
O=C(c1nnc(N2CC(F)C2)o1)N1CCc2[nH]cnc2C1c1nc2cc(F)ccc2o1 (centres unmarked),–,1000 to 5000
Cc1nc(C(C)O)oc1C(=O)N1CCc2[nH]cnc2C1c1nc2ccc(F)cc2o1 (centres unmarked),–,1000 to 5000
"Cc1ccc2nc([C@@H]3c4nc[nH]c4CCN3C(=O)c3nnc(-c4cnn(C)c4)o3)oc2c1 [Example 103, (S)-(5-(1-methyl-1H-pyrazol-4-yl)-1,3,4-oxadiazol-2-yl)(4-(6-methylbenzo[d]oxazol-2-yl)-6,7-dihydro-1H-imidazo[4,5-c]pyridin-5(4H)-yl)methanone]",1000 to 5000,–
"Cc1cccc2oc([C@H]3c4nc[nH]c4CCN3C(=O)c3cnn4cc(N5CCC(O)CC5)ccc34)nc12 [Example 702, (R)-(6-(4-hydroxypiperidin-1-yl)pyrazolo[1,5-a]pyridin-3-yl)(4-(4-methylbenzo[d]oxazol-2-yl)-6,7-dihydro-1H-imidazo[4,5-c]pyridin-5(4H)-yl)methanone]",≥ 5000,–
"C[C@@H](O)c1nc(C(F)F)c(C(=O)N2CCc3[nH]cnc3[C@H]2c2nc3cc(F)ccc3o2)o1 [Example 151, (4-(difluoromethyl)-2-((R)-1-hydroxyethyl)oxazol-5-yl)((S)-4-(5-fluorobenzo[d]oxazol-2-yl)-6,7-dihydro-1H-imidazo[4,5-c]pyridin-5(4H)-yl)methanone]",≤ 500,–
"Cc1cc(F)c2oc([C@H]3c4nc[nH]c4CCN3C(=O)c3oc(C(C)(C)O)nc3C(F)F)nc2c1 [Example 500, (R)-(4-(difluoromethyl)-2-(2-hydroxypropan-2-yl)oxazol-5-yl)(4-(7-fluoro-5-methylbenzo[d]oxazol-2-yl)-6,7-dihydro-1H-imidazo[4,5-c]pyridin-5(4H)-yl)methanone]",≤ 500,–
